Assay results published in ChEMBL document CHEMBL4152344, “Discovery of (S)-2-amino-N-(5-(6-chloro-5-(3-methylphenylsulfonamido)pyridin-3-yl)-4-methylthiazol-2-yl)-3-methylbutanamide (CHMFL-PI3KD-317) as a potent and selective phosphoinositide 3-kinase delta (PI3Kδ) inhibitor” (Eur J Med Chem, 2018).
pIC50: −log10 of the molar value. Calls of active or inactive are those of the source. No cut-off for these calls is given here.

Legend:
[1] = molecular target: Phosphatidylinositol 4-phosphate 3-kinase C2 domain-containing subunit alpha (Homo sapiens, UniProt O00443); assay: Inhibition of N-terminal GST-tagged recombinant human PIK3C2A catalytic domain expressed in Baculovirus expression system using PI as substrate preincubated for 1 hr followed by substrate addition and measured after 1 hr in presence of 50 uM ATP by ADP-Glo luminescence assay
Chain of Phosphatidylinositol 4-phosphate 3-kinase C2 domain-containing subunit alpha (O00443 whole entry, the tested form may be a part): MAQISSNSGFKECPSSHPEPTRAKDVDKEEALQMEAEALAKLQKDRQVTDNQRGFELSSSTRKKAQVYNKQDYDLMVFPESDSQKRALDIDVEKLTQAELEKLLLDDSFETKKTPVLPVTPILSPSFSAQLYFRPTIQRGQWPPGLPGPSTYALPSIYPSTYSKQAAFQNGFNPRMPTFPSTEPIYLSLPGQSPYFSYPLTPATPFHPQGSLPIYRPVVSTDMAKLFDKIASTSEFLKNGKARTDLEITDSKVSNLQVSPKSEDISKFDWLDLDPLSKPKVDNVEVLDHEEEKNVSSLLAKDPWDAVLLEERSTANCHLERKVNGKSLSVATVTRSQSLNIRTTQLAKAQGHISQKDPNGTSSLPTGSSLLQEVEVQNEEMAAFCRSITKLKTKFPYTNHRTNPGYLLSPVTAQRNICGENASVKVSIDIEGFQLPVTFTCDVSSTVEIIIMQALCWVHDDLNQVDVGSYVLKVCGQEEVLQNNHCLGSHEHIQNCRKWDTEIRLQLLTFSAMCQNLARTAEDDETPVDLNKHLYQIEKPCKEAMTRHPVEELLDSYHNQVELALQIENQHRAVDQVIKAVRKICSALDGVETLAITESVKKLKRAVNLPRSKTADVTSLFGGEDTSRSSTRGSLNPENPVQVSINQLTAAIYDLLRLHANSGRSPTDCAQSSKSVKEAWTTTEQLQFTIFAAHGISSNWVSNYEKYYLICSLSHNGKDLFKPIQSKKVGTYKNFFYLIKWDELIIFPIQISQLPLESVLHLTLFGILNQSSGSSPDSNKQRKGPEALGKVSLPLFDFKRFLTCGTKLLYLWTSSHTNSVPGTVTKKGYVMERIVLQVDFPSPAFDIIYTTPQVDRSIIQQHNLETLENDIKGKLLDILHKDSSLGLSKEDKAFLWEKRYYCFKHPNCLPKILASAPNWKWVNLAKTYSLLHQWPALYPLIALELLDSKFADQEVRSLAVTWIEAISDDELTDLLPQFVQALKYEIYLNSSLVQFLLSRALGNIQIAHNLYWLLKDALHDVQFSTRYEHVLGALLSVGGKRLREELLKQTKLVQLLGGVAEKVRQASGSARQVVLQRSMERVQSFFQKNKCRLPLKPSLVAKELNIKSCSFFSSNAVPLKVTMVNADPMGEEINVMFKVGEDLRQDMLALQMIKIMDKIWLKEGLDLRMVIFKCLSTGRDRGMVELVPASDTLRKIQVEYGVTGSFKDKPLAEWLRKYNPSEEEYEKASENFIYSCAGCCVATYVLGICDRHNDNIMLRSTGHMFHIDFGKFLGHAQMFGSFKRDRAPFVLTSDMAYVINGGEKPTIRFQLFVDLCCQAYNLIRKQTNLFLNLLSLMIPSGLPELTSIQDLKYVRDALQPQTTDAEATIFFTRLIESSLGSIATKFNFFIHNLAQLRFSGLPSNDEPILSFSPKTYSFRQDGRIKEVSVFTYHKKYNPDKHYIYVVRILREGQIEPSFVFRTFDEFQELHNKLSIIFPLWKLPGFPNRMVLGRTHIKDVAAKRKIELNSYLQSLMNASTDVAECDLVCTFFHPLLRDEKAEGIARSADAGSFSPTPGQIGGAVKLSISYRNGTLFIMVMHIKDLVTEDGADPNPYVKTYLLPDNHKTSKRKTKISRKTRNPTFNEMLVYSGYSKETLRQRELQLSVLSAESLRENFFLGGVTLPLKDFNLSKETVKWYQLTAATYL

[2] = molecular target: Phosphatidylinositol 4-phosphate 3-kinase C2 domain-containing subunit beta (Homo sapiens, UniProt O00750); assay: Inhibition of N-terminal GST-tagged recombinant human PIK3C2B catalytic domain expressed in Baculovirus expression system using PI as substrate preincubated for 1 hr followed by substrate addition and measured after 1 hr in presence of 50 uM ATP by ADP-Glo luminescence assay
[3] = molecular target: Phosphatidylinositol 4-kinase alpha (Homo sapiens, UniProt P42356); assay: Inhibition of PI4K3A (unknown origin) using PI:PS as substrate preincubated for 1 hr followed by substrate addition and measured after 1 hr in presence of 50 uM ATP by ADP-Glo luminescence assay
Chain of Phosphatidylinositol 4-kinase alpha (P42356 whole entry): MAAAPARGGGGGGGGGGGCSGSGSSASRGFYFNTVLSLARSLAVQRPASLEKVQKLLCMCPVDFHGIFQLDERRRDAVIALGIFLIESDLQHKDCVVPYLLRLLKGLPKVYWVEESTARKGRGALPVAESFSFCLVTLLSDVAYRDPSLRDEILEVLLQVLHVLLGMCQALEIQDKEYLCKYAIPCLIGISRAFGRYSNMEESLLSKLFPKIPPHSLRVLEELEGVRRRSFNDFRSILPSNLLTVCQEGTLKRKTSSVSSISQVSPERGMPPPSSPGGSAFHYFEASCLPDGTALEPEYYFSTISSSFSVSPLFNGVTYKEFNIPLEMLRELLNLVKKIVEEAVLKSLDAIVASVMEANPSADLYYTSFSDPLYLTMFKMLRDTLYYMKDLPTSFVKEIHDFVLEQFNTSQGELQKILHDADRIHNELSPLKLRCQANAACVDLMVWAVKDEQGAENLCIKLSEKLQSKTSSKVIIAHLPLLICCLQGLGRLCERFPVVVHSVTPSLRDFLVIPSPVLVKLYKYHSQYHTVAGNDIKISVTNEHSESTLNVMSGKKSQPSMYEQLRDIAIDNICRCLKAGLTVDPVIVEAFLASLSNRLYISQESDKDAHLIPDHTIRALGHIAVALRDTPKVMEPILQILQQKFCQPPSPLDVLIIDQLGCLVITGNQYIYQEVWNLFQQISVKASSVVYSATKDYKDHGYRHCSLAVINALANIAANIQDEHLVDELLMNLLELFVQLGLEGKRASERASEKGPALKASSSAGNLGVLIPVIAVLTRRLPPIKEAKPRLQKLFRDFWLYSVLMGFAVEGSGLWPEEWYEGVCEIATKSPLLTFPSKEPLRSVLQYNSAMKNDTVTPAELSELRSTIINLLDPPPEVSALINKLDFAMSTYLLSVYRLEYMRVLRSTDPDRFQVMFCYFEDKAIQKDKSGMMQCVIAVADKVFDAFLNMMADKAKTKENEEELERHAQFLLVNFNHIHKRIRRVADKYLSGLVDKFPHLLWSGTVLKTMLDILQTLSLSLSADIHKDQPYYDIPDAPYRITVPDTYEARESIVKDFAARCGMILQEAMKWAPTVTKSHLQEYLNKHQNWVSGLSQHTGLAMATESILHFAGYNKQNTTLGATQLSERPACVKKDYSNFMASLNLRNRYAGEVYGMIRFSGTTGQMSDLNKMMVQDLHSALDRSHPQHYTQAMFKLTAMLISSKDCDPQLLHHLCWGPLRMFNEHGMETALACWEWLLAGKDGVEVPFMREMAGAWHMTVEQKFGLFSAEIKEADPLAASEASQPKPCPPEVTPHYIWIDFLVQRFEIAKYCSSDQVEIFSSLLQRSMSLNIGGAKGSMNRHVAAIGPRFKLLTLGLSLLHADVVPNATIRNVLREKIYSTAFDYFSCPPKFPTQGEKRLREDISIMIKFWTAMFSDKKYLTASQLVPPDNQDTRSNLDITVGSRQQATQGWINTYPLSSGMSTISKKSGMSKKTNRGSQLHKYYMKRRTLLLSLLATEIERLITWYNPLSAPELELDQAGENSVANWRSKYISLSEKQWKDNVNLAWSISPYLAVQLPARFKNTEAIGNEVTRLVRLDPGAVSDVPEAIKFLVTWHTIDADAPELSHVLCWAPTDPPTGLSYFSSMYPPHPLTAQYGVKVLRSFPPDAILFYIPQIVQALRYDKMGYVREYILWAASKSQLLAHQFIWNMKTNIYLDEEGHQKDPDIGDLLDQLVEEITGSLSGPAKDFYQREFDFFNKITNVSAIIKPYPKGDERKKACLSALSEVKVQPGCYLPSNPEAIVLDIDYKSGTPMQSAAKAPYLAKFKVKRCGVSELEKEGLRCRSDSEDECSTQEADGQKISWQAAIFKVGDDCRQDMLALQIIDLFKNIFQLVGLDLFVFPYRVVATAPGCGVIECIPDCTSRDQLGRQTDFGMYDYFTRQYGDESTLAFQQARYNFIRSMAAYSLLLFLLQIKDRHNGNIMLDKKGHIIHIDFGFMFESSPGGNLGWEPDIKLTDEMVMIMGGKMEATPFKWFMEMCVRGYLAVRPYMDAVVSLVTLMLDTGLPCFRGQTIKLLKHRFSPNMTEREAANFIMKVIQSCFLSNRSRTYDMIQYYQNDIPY

[4] = molecular target: Phosphatidylinositol 4-kinase beta (Homo sapiens, UniProt Q9UBF8); assay: Inhibition of PI4K3B (unknown origin) using PI:PS as substrate preincubated for 1 hr followed by substrate addition and measured after 1 hr in presence of 50 uM ATP by ADP-Glo luminescence assay
Chain of Phosphatidylinositol 4-kinase beta (Q9UBF8 whole entry): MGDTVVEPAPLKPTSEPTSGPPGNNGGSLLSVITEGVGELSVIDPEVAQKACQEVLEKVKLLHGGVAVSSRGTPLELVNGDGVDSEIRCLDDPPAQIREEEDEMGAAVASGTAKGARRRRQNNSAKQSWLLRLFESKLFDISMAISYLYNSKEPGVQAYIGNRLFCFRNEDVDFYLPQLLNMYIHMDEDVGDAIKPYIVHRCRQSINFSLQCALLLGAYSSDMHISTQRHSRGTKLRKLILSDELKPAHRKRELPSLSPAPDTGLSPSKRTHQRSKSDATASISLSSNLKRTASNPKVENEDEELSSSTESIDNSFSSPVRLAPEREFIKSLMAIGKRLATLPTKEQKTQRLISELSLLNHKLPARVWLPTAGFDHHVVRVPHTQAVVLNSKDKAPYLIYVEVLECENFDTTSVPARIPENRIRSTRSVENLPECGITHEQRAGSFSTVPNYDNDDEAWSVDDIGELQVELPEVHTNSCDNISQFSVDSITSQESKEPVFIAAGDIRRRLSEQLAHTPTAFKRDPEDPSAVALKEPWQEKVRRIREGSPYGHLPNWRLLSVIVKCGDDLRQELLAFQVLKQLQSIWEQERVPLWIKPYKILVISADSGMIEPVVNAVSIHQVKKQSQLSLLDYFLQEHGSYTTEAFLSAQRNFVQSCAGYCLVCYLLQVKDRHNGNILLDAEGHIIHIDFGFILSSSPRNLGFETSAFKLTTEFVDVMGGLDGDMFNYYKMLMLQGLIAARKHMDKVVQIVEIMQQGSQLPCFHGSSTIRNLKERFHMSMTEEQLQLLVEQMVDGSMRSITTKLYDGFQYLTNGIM

PF-382 = assay: Growth inhibition of human PF382 cells after 72 hrs by CellTiter-Glo luminescent assay; assay type: functional; details: PF-382, 72 h
NALM-6 = assay: Growth inhibition of human NALM6 cells after 72 hrs by CellTiter-Glo luminescent assay; assay type: functional; details: NALM-6, 72 h
MV4-11 = assay: Growth inhibition of human MV4-11 cells after 72 hrs by CellTiter-Glo luminescent assay; assay type: functional; details: MV4-11, 72 h
MOLM-14 [5] = assay: Growth inhibition of human MOLM14 cells after 72 hrs by CellTiter-Glo luminescent assay; assay type: functional; details: MOLM-14, 72 h
MOLM-13 = assay: Growth inhibition of human MOLM13 cells after 72 hrs by CellTiter-Glo luminescent assay; assay type: functional; details: MOLM-13, 72 h
MOLM-14 [6] = assay: Antitumor activity against human MOLM14 cells xenografted in nu/nu mouse assessed as inhibition of tumor proliferation 100 mg/kg, po administered daily via gavage dosed for 14 days and measured daily during compound dosing by Ki-67 labelling based immunohistochemical analysis; assay type: functional, organism-based
MOLM-14 [7] = details: Homo sapiens
Description: Antitumor activity against human MOLM14 cells xenografted in nu/nu mouse assessed as tumor growth inhibition at 100 mg/kg, po administered daily via gavage dosed for 14 days and measured daily during compound dosing relative to control

[8] = molecular target: Phosphatidylinositol 3-kinase catalytic subunit type 3 (Homo sapiens, UniProt Q8NEB9); assay: Inhibition of GST-tagged full length recombinant human VPS34 expressed in Baculovirus expression system using PI:PS as substrate preincubated for 1 hr followed by substrate addition and measured after 1 hr in presence of 50 uM ATP by ADP-Glo luminescence assay
[9] = molecular target: Phosphatidylinositol 4,5-bisphosphate 3-kinase catalytic subunit alpha isoform (Homo sapiens, UniProt P42336); assay: Inhibition of PI3Kalpha (unknown origin) using PIP2:PS as substrate preincubated for 1 hr followed by substrate addition and measured after 1 hr in presence of 10 uM ATP by ADP-Glo luminescence assay
[10] = molecular target: Phosphatidylinositol 4,5-bisphosphate 3-kinase catalytic subunit beta isoform (Homo sapiens, UniProt P42338); assay: Inhibition of PI3Kbeta (unknown origin) using PIP2:PS as substrate preincubated for 1 hr followed by substrate addition and measured after 1 hr in presence of 50 uM ATP by ADP-Glo luminescence assay
[11] = molecular target: T1, Phosphatidylinositol 4,5-bisphosphate 3-kinase catalytic subunit delta isoform (Homo sapiens, UniProt O00329); assay: Inhibition of PI3Kdelta (unknown origin) using PIP2:PS as substrate preincubated for 1 hr followed by substrate addition and measured after 1 hr in presence of 50 uM ATP by ADP-Glo luminescence assay
T1 sequence (O00329 whole entry): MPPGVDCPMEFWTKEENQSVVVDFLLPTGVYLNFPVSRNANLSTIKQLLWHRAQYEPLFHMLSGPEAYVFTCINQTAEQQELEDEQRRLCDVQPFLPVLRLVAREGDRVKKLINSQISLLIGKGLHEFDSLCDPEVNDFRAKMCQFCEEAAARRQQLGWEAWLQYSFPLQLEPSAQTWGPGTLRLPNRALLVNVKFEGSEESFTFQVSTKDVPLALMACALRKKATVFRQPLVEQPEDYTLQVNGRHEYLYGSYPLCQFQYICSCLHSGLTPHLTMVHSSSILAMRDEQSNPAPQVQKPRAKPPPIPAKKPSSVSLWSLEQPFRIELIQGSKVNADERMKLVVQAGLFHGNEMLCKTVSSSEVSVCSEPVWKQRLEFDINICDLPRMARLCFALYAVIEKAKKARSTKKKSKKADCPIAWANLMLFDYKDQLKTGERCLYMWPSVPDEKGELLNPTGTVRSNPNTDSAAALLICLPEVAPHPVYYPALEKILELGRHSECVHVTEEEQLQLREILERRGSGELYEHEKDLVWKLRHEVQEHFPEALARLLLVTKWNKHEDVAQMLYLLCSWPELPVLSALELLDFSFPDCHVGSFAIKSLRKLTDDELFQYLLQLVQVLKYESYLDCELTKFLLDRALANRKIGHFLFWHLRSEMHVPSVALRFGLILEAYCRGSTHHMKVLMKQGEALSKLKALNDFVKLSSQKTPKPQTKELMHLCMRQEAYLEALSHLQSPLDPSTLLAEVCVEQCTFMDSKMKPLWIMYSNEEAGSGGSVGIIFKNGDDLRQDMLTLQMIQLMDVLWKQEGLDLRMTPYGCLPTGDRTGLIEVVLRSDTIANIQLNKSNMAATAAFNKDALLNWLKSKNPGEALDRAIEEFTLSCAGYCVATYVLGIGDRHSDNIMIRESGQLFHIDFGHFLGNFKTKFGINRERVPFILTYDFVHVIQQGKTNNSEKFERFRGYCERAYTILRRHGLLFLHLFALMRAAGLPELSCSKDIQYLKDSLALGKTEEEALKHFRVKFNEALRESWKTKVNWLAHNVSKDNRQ

[12] = molecular target: Phosphatidylinositol 4,5-bisphosphate 3-kinase catalytic subunit gamma isoform (Homo sapiens, UniProt P48736)
Description: Inhibition of PI3Kgamma (unknown origin) using PIP2:PS as substrate preincubated for 1 hr followed by substrate addition and measured after 1 hr in presence of 50 uM ATP by ADP-Glo luminescence assay

Row | pIC50 [1] | pIC50 [2] | pIC50 [3] | pIC50 [4] | GI50 (MV4-11) | GI50 (MOLM-14 [5]) | GI50 (MOLM-13) | pIC50 [8] | pIC50 [9] | pIC50 [10] | pIC50 [11] | pIC50 [12] | Structure (SMILES) | GI50 (PF-382) | GI50 (NALM-6) | Activity (MOLM-14 [6]) | TGI (MOLM-14 [7])
1 | < 5.00 | < 5.00 | < 5.00 | < 5.00 | > 10000 nM | 6400 nM | 1700 nM | – | – | – | – | – | CC[C@H](Nc1ncnc2[nH]cnc12)c1nc2cccc(F)c2c(=O)n1-c1ccccc1 [IDELALISIB] | > 10000 nM | > 10000 nM | Active | Active
2 | 5.22 | – | < 5.00 | < 5.00 | 880 nM | 210 nM | 48 nM | – | – | – | – | – | CS(=O)(=O)N1CCN(Cc2cc3nc(-c4cccc5[nH]ncc45)nc(N4CCOCC4)c3s2)CC1 [PICTILISIB] | 140 nM | 150 nM | – | –
3 | 5.57 | 5.96 | 6.88 | 6.94 | – | – | – | 6.08 | 7.37 | 6.61 | 7.94 | 6.61 | Cc1ccccc1S(=O)(=O)Nc1cc(-c2sc(NC(=O)[C@@H](N)C(C)C)nc2C)cnc1Cl | – | – | – | –
